Test results: the kinase profiling compilation of Christmann-Franck et al. (2016)

How the values were obtained:
CHKA (human) = CHKA (human) (UniProt P35790); assay: ADP detection assay-Luminescence
CHKB (human) = CHKB (human) (UniProt Q9Y259); assay: ADP detection assay-Luminescence
DGKB (human) = DGKB (human) (UniProt Q9Y6T7); assay: ADP detection assay-Luminescence
DGKG (human) = DGKG (human) (UniProt P49619); assay: ADP detection assay-Luminescence
DGKZ (human) = DGKZ (human) (UniProt Q13574); assay: ADP detection assay-Luminescence
DGKZ (human), sequence (Q13574 whole entry, looked up): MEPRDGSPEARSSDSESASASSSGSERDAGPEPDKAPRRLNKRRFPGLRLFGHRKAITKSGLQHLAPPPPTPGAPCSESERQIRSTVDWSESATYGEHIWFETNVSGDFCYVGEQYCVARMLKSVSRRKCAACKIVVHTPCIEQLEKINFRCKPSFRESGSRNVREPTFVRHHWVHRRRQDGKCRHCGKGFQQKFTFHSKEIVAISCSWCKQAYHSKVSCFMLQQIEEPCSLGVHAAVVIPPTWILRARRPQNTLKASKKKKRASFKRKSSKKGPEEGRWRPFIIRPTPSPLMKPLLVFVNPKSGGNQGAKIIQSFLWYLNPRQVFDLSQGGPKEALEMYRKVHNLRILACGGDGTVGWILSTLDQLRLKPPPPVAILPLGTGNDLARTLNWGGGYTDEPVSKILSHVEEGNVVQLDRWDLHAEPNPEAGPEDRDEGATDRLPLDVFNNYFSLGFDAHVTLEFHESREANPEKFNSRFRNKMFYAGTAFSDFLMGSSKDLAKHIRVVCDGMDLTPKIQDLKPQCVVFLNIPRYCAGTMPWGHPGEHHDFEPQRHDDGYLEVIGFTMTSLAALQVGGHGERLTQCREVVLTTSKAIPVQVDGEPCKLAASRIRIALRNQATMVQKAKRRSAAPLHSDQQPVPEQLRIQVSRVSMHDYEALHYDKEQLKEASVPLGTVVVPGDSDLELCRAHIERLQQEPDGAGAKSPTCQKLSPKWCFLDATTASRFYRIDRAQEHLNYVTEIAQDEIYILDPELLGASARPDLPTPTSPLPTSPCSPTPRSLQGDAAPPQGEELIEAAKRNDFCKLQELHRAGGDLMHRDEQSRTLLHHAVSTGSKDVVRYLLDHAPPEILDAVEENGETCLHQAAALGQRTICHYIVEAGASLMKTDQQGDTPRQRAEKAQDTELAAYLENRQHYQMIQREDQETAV

PI4KA (human) = PI4KA (human) (UniProt P42356); assay: ADP detection assay-Luminescence
PI4KB (human) = PI4KB (human) (UniProt Q9UBF8); assay: ADP detection assay-Luminescence
PI4KB (human), sequence (Q9UBF8 whole entry, looked up): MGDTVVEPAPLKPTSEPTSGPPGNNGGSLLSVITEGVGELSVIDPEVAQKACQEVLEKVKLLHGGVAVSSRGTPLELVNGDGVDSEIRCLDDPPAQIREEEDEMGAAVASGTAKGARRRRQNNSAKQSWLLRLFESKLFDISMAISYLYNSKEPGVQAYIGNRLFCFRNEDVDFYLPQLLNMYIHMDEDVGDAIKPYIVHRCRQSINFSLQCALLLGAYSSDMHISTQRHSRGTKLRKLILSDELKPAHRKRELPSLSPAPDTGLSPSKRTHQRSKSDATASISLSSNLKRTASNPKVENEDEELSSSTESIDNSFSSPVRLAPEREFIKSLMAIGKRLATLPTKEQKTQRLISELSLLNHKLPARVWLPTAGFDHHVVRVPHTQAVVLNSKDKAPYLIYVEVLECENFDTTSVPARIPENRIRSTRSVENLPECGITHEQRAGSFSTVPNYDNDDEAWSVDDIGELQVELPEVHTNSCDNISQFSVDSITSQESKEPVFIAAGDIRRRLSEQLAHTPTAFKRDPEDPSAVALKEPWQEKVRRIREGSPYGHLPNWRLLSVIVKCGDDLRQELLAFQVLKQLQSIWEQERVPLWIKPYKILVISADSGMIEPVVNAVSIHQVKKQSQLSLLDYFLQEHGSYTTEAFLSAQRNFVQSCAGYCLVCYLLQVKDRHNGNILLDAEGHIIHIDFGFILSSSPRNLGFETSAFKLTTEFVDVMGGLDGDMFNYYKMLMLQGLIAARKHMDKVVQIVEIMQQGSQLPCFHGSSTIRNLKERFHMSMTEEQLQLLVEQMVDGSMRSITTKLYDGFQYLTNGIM

PIK3C3 (human) = PIK3C3 (human) (UniProt Q8NEB9); assay: ADP detection assay-Luminescence
PIK3C3 (human), sequence (Q8NEB9 whole entry, looked up): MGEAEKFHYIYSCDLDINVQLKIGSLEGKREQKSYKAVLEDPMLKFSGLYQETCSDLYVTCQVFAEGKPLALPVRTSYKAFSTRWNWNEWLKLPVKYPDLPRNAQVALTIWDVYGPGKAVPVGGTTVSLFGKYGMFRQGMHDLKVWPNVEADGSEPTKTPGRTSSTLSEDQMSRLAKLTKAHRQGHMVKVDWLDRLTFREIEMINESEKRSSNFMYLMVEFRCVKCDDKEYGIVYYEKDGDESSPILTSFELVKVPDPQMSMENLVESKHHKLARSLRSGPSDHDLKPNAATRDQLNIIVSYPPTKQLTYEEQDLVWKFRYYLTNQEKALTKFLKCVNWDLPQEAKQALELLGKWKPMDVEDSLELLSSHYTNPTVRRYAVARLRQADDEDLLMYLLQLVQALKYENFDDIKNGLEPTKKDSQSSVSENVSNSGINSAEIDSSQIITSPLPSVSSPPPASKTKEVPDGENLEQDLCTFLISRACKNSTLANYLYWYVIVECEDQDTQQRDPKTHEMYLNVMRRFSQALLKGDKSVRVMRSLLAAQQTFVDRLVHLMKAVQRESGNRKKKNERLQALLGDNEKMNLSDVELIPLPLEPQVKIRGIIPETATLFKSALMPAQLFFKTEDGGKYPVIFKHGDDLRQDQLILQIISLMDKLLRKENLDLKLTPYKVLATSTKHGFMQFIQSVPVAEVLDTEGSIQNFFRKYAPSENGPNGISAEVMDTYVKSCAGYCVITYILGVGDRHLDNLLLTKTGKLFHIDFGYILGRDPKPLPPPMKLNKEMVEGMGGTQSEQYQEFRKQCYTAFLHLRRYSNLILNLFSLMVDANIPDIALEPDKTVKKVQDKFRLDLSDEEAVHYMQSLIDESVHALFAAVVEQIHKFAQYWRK

PIK3CA PIK3R1 (human) = PIK3CA PIK3R1 (human) (UniProt P27986+P42336); assay: ADP detection assay-Luminescence
PIK3CB PIK3R1 (human) = PIK3CB PIK3R1 (human) (UniProt P27986+P42338); assay: ADP detection assay-Luminescence
PIK3CD PIK3R1 (human) = PIK3CD PIK3R1 (human) (UniProt O00329+P27986); assay: ADP detection assay-Luminescence
PIK3CD PIK3R1 (human), sequence (O00329 whole entry, looked up): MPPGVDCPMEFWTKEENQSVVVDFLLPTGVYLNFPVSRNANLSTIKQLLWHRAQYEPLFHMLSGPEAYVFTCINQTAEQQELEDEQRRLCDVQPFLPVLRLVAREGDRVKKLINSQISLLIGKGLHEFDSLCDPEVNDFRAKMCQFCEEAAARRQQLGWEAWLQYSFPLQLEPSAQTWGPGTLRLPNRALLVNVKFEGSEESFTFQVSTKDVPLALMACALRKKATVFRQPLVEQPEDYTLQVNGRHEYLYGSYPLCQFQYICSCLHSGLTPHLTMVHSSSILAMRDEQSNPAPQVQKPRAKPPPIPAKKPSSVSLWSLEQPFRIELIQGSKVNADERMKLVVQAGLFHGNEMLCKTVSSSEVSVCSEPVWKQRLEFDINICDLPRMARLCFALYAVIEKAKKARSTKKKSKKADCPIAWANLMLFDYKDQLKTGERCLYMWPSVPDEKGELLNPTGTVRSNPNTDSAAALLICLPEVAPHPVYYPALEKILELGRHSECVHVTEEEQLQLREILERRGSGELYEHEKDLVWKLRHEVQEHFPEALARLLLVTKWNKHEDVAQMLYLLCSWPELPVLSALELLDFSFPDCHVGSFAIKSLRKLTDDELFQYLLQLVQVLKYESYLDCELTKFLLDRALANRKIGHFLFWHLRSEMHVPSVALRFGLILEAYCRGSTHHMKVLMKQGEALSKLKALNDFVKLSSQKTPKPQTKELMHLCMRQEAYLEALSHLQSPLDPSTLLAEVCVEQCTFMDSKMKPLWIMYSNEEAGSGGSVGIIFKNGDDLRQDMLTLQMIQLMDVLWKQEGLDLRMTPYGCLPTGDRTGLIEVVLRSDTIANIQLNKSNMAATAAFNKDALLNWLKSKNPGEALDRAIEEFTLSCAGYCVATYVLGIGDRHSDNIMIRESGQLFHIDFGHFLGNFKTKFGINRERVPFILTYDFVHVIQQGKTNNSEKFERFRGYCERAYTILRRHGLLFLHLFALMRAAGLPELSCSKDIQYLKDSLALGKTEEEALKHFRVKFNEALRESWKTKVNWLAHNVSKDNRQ
PIK3CD PIK3R1 (human), sequence (P27986 whole entry, looked up): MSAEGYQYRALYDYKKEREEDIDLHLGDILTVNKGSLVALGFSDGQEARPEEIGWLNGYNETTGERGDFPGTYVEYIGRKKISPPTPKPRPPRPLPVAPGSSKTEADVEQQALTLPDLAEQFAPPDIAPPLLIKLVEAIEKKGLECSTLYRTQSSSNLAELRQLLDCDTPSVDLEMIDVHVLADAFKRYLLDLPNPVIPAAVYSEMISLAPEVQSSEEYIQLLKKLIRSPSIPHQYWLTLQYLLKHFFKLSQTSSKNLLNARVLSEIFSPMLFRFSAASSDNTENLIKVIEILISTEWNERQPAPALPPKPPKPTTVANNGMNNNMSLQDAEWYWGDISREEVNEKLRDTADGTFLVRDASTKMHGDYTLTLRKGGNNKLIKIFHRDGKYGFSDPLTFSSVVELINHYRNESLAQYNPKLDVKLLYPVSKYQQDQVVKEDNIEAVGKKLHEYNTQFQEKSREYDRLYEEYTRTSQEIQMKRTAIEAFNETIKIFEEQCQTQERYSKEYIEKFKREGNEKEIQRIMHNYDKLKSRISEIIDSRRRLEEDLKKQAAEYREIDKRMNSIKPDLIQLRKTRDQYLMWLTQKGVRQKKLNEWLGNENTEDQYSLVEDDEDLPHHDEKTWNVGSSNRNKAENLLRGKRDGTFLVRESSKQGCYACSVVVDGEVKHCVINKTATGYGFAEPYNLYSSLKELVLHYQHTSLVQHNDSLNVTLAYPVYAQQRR

PIK3CG (human) = PIK3CG (human) (UniProt P48736); assay: ADP detection assay-Luminescence
PIP4K2A (human) = PIP4K2A (human) (UniProt P48426); assay: ADP detection assay-Luminescence
SPHK1 (human) = SPHK1 (human) (UniProt Q9NYA1); assay: ADP detection assay-Luminescence
SPHK2 (human) = SPHK2 (human) (UniProt Q9NRA0); assay: ADP detection assay-Luminescence
HIPK3 (human) = HIPK3 (human) (UniProt Q9H422); assay: radiometric filter-binding kinase assay
IKBKB (human) = IKBKB (human) (UniProt O14920); assay: radiometric filter-binding kinase assay
MAPK9 (human) = MAPK9 (human) (UniProt P45984); assay: radiometric filter-binding kinase assay
[1] = system: RPS6KB1 (human), P23443 [T412E]; assay: radiometric filter-binding kinase assay
RPS6KB1 (human), P23443 [T412E], sequence (P23443 whole entry T412E, looked up): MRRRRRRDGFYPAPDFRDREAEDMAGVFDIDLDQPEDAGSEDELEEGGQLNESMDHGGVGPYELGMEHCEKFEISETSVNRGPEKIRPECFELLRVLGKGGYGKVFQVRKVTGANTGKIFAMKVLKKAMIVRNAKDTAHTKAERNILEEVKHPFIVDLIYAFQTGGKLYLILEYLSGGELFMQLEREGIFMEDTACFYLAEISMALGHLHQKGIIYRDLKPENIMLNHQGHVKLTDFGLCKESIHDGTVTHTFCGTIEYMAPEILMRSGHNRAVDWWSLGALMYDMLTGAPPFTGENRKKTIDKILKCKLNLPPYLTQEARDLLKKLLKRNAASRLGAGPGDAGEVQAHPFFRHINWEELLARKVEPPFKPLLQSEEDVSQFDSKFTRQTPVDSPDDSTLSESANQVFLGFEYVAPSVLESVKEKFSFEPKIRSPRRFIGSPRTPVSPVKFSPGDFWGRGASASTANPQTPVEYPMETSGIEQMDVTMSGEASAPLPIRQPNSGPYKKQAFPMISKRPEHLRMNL

## CNc1nc(-c2ccc3c(N)n[nH]c3c2)cc(N2C[C@@H](C(=O)NC3CCCCC3)CC[C@H]2C)n1
CHKA (human); compound 0.1 µM
  residual activity: 102%
CHKA (human); compound 1.0 µM
  residual activity: 94%
CHKA (human); compound 10.0 µM
  residual activity: 101%
CHKB (human); compound 0.1 µM
  residual activity: 113%
CHKB (human); compound 1.0 µM
  residual activity: 95%
CHKB (human); compound 10.0 µM
  residual activity: 87%
DGKB (human); compound 0.1 µM
  residual activity: 99%
DGKB (human); compound 1.0 µM
  residual activity: 100%
DGKB (human); compound 10.0 µM
  residual activity: 93%
DGKG (human); compound 0.1 µM
  residual activity: 99%
DGKG (human); compound 1.0 µM
  residual activity: 100%
DGKG (human); compound 10.0 µM
  residual activity: 101%
DGKZ (human); compound 0.1 µM
  residual activity: 110%
DGKZ (human); compound 1.0 µM
  residual activity: 86%
DGKZ (human); compound 10.0 µM
  residual activity: 101%
PI4KA (human); compound 0.1 µM
  residual activity: 100%
PI4KA (human); compound 1.0 µM
  residual activity: 94%
PI4KA (human); compound 10.0 µM
  residual activity: 103%
PI4KB (human); compound 0.1 µM
  residual activity: 99%
PI4KB (human); compound 1.0 µM
  residual activity: 89%
PI4KB (human); compound 10.0 µM
  residual activity: 97%
PIK3C3 (human); compound 0.1 µM
  residual activity: 96%
PIK3C3 (human); compound 1.0 µM
  residual activity: 102%
PIK3C3 (human); compound 10.0 µM
  residual activity: 89%
PIK3CA PIK3R1 (human); compound 0.1 µM
  residual activity: 106%
PIK3CA PIK3R1 (human); compound 1.0 µM
  residual activity: 105%
PIK3CA PIK3R1 (human); compound 10.0 µM
  residual activity: 104%
PIK3CB PIK3R1 (human); compound 0.1 µM
  residual activity: 102%
PIK3CB PIK3R1 (human); compound 1.0 µM
  residual activity: 108%
PIK3CB PIK3R1 (human); compound 10.0 µM
  residual activity: 97%
PIK3CD PIK3R1 (human); compound 0.1 µM
  residual activity: 119%
PIK3CD PIK3R1 (human); compound 1.0 µM
  residual activity: 104%
PIK3CD PIK3R1 (human); compound 10.0 µM
  residual activity: 73%
PIK3CG (human); compound 0.1 µM
  residual activity: 98%
PIK3CG (human); compound 1.0 µM
  residual activity: 83%
PIK3CG (human); compound 10.0 µM
  residual activity: 70%
PIP4K2A (human); compound 0.1 µM
  residual activity: 102%
PIP4K2A (human); compound 1.0 µM
  residual activity: 97%
PIP4K2A (human); compound 10.0 µM
  residual activity: 86%
SPHK1 (human); compound 0.1 µM
  residual activity: 106%
SPHK1 (human); compound 1.0 µM
  residual activity: 102%
SPHK1 (human); compound 10.0 µM
  residual activity: 94%
SPHK2 (human); compound 0.1 µM
  residual activity: 103%
SPHK2 (human); compound 1.0 µM
  residual activity: 100%
SPHK2 (human); compound 10.0 µM
  residual activity: 91%
HIPK3 (human); compound 0.01 µM
  residual activity: 111%
HIPK3 (human); compound 0.1 µM
  residual activity: 105%
HIPK3 (human); compound 1.0 µM
  residual activity: 106%
IKBKB (human); compound 0.01 µM
  residual activity: 105%
IKBKB (human); compound 0.1 µM
  residual activity: 112%
IKBKB (human); compound 1.0 µM
  residual activity: 98%
MAPK9 (human); compound 0.01 µM
  residual activity: 117%
MAPK9 (human); compound 0.1 µM
  residual activity: 126%
MAPK9 (human); compound 1.0 µM
  residual activity: 120%
[1]; compound 0.01 µM
  residual activity: 111%
[1]; compound 0.1 µM
  residual activity: 106%
[1]; compound 1.0 µM
  residual activity: 100%
